The subject of data set [1] is lymphocytes infiltrating the large bowel lamina propria. The data set is described as follows: scid mouse model of Inflammatory Bowel Disease: lymphocytes infiltrating the large bowel lamina propria. The settings on record: for effect on lymphocyte infiltration into the bowel (in words): compared to buffer control; for effect on lymphocyte infiltration into the bowel (in words) / CD4+ Lymphocytes, Average / CD4+ as a percent of total Lymphocytes, Average / Total Lymphocytes, Average: 25 mg/kg orally each day; for CD4+ Lymphocytes, Average / CD4+ as a percent of total Lymphocytes, Average / Total Lymphocytes, Average: group average; for CD4+ Lymphocytes / CD4+ as a percent of total Lymphocytes / Total Lymphocytes: individual mouse, 25 mg/kg orally each day until sacrifice, lamina propria, 25 mg/kg. The data set is classed as in vivo, scid C.B.-17 mice. The source says: The scid (severe combined immunodeficient) C.B.-17 line of mice provide an effective model of Inflammatory Bowel Disease. The disease state in these mice is triggered by the intraperitoneal injection of CD4+ T cells from a normal BALB/C mouse. The induced disease is characterized by intestinal inflammation in the large intestine, leukocytic infiltrates into the mucosa, submucosa, and mucularis, epithelial cell hyperplasia, loss of mucin-secreting cells, and ulcers with deep fissures, and diarrhea. In the mouse model, CD4+ T cells and macrophages infiltrate the bowel. The scid mouse is recognized by the art as a model for IBD. Powrie et al., Inhibition of Th1 Responses Prevents Inflammatory Bowel Disease in scid Mice Reconstituted with CD45RBhi CD4+ T Cells, Immunity 1:553-562 (1994).
500,000 to 1×10^6 T cells derived from the lymph nodes of normal BALB/C mice were injected intraperitoneally into scid mice 6 weeks prior to sacrifice. 2 days before lymphocyte administration, treatment of the scid mice began with buffer control, medroxyprogesterone acetate, or 17-hydroxyprogesterone. The treatment mice (5 in each group) received 25 mg/kg of drug orally each day until sacrifice.
After sacrifice, lamina propria (bowel wall) lymphocytes were isolated from each animal. The total number of lymphocytes, number of CD4+ lymphocytes, and the percent of CD4+ lymphocytes was determined. CD4+ lymphocytes were identified by using a first antibody directed to CD4, and a second antibody directed to the first antibody. The second antibody was tagged with fluorescein, which lights up as green in a flow cytometer, identifying which lymphocytes are the CD4+ form. Lymphocyte infiltration into the bowel is a predictor of the progress of the disease because lymphocytes are involved in the inflammatory response leading to damage of the bowel wall.

Data set [2] deals with Patients with mild to moderate ulcerative colitis. The data set is described as follows: Treatment of patients with ulcerative colitis (Disease Activity Index). In kind it is in vivo, human. Here is the method:
Patients with mild to moderate ulcerative colitis were evaluated for their response to treatment with medroxyprogesterone acetate. Patients in the treatment group (8 patients) received a loading dose of 1 gram of medroxyprogesterone acetate every 6 hours for 8 doses. These patients were then given 500 mg of medroxyprogesterone every 12 hours for 8 weeks.
Disease improvement was measured using the Disease Activity Index (DAI). The DAI is a total score for stool frequency, blood in the stool, the investigator's global assessment (IGA), and the physician's evaluation of the appearance of mucosa during flexible sigmoidoscopy of the colon.

Data set [3] concerns Patients with mild to moderate Crohn's disease. The data set can be described thus: Treatment of patients with Crohn's disease (CDAI). The data set is classed as in vivo, human. Here is the method:
Patients with mild to moderate Crohn's disease were evaluated for their response to treatment with […]. Patients in the treatment group (12 patients) recieved a loading dose of 1 gram of medroxyprogesterone acetate every 6 hours for 8 doses. These patients were then given 500 mg of medroxyprogesterone every 12 hours for 8 weeks.
Disease improvement was measured using the Crohn's Disease Activity Index (CDAI). The CDAI score for a patient was calculated by multiplying the numerical value for each variable by multiplication factor indicated for that variable, and totaling all of the resultant values, as shown in Table 5. A score below 150 indicated remission and a score above 450 indicated severe disease. In order to enter the study, patients were required to have a total CDAI score of 200 to 400 at baseline.
Disease remission was defined as a CDAI score of 150 or below. Disease response was defined as either a decrease of 70 or greater in the CDAI or disease remission.

Data set [4] has as its system IL-6 release from macrophages. The data set is described as follows: IL-6 release (ELISA) from spleen macrophages of treated mice. In kind it is cell-based, mouse. Here is the method:
The spleens of four of the mice from Example 1 were removed after the animals were sacrificed. Macrophages were isolated from the spleen of the medroxyprogesterone acetate or buffer control treated mice. IL-6 release from these macrophages was measured by ELISA following stimulation with rat anti-mouse macrophage Fc receptor antibody 2.4G2 and F(ab′)2 IgG goat anti-rat antibody. The effect of medroxyprogesterone acetate on IL-6 release is illustrated in Table 3.
A general note: An ELISA detects its analyte on a solid surface through an enzyme-linked reagent.

In data set [5] the test system is TNF-α release from macrophages. The data set can be described thus: TNF-α release (ELISA) from spleen macrophages of treated mice. The data set is classed as cell-based, mouse. Here is the method:
The spleens of six of the mice from Example 1 were removed after the animals were sacrificed. Macrophages were isolated from the spleen of the medroxyprogesterone acetate or buffer control treated mice. TNF-α release from these macrophages was measured by ELISA following stimulation with either (1) rat anti-mouse macrophage Fc receptor antibody 2.4G2 and F(ab′)2 IgG goat anti-rat antibody, or (2) phorbol myristate acetate (“PMA”), a phorbol ester. The effect of medroxyprogesterone acetate on TNF-α release is illustrated in Table 2.

Where [6] appears, read: individual mouse, stimulation 2.4G2 and F(ab′)2 IgG anti-rat, listed as MPA.

Where “and” joins values, the source holds several entries; their conditions need not be identical. Identical values can stand only once.

As to `CC(=O)[C@@]1(O)CC[C@H]2[C@@H]3CCC4=CC(=O)CC[C@]4(C)[C@H]3CC[C@@]21C` [17-hydroxyprogesterone], in data set [1], the “effect on lymphocyte infiltration into the bowel (in words)” value is listed as “did not work in treating the mice”; the “CD4+ Lymphocytes, Average” value is given as 16.3 1 × 106; the “CD4+ as a percent of total Lymphocytes, Average” value is given as 88.0%; the “Total Lymphocytes, Average” value is listed as 18.4 1 × 106. In data set [1], the “CD4+ Lymphocytes” value is 8.9 1 × 106 and 1.6 1 × 106 and 15 1 × 106 and 23 1 × 106; the “CD4+ as a percent of total Lymphocytes” value is 89% and 81% and 93% and 91%; the “Total Lymphocytes” value is 10 1 × 106 and 2 1 × 106 and 16.5 1 × 106 and 25.2 1 × 106.
Consider `CC(=O)O[C@]1(C(C)=O)CC[C@H]2[C@@H]3C[C@H](C)C4=CC(=O)CC[C@]4(C)[C@H]3CC[C@@]21C` [Medroxyprogesterone Acetate, pregn-4-ene-3,20-dione, 17-(acetyloxy)-6-methyl-, (6α)-], for which, in data set [2] (8 weeks, 8 patients), the “patients showing improvement with treatment” value is reported as “Five out of eight”. Besides, the “Improvement (reduction of one or more units in DAI score at end of study vs baseline)” value in data set [2] (individual patient, 1 g every 6 hours for 8 doses, then 500 mg every 12 hours for 8 weeks) is “Yes (5×) and No (3×)”. Also, in data set [2] (of the 3 patients who did not respond at end of 8 week study), the “non-responders with reduction in symptoms and complaints during initial treatment” value stood at 2 patients. Further, the “adverse event leading to drop out” value in data set [3] (12 patients treated) is given as “One patient dropped out for a minor adverse event (fatigue)”. In addition, in data set [3] (Completers (10 patients), 8 weeks), the “Remissions (CDAI score of 150 or below)” value stood at 7. The “IL-6 Measurement” value in data set [4] (setting [6]) was 298,940 and 266,557. The “effect on IL-6 release from macrophages (in words)” value in data set [4] (macrophages from treated mice) is listed as “may be inhibiting IL-6 release from macrophages”. For the same molecule, in data set [1], the “effect on lymphocyte infiltration into the bowel (in words)” value is listed as “effective in decreasing lymphocyte infiltration into the bowel”; the “CD4+ Lymphocytes, Average” value is 3.8 1 × 106; the “CD4+ as a percent of total Lymphocytes, Average” value is reported as 81.4%; the “Total Lymphocytes, Average” value was 4.5 1 × 106. In addition, in data set [1], the “CD4+ Lymphocytes” value was 1.6 1 × 106 and 4.1 1 × 106 and 1.3 1 × 106 and 3.0 1 × 106 and 9.2 1 × 106; the “CD4+ as a percent of total Lymphocytes” value was 81% and 87% and 65% and 83% and 91%; the “Total Lymphocytes” value is 2 1 × 106 (2×) and 4.8 1 × 106 and 3.6 1 × 106 and 10.2 1 × 106. For the same molecule, in data set [5] (setting [6]), the “TNF-α Measurement” value is 2314 pg/mL and 27563 pg/mL and 1843 pg/mL; the “TNF-α Repeat Measurement” value is 1026 pg/mL and 0 pg/mL. For the same molecule, the “TNF-α Repeat Measurement” value in data set [5] (individual mouse, stimulation PMA for Repeat Measurement) came to 0 pg/mL. Also, in data set [5] (macrophages from treated mice), the “effect on TNF-α release from macrophages (in words)” value is reported as “may be inhibiting TNF-α release from macrophages”.
